Measured values taken from the NIST ThermoML archive (doi:10.1016/j.jct.2008.04.005).
± gives the expanded uncertainty stated by the source.

Test: molar enthalpy of vaporization or sublimation
Conditions: 298.15 K, Liquid

Row | molar enthalpy (Calvet microcalorimetry) [kcal/mol] | molar enthalpy (Vacuum drop calorimetry) [kcal/mol] | SMILES
1 | 9.61 ± 0.43 | – | Cc1ccc(C)s1 [2,5-dimethylthiophene]
2 | – | 14.7 ± 0.621 | CC(=O)c1cc(C)sc1C [3-acetyl-2,5-dimethylthiophene]
